Measurements published in ChEMBL document CHEMBL5260810, “Inhibition of bromodomain-containing protein 9 for the prevention of epigenetically-defined drug resistance” (Bioorg Med Chem Lett, 2017).
Activity calls are given as the source filed them. The rule behind the calls is not given here.

Experiments:
MIA PaCa-2 = experiment: Antiproliferative activity against human MIA PaCa-2 cells assessed as reduction in colony formation up to 20 uM supplemented with fresh medium containing compound every 3 days for 9 days by MTT staining based clonogenic assay; assay type: functional, cell-based; details: time 9.0 day
A549 = experiment: Antiproliferative activity against human A549 cells assessed as reduction in colony formation up to 20 uM supplemented with fresh medium containing compound every 3 days for 9 days by MTT staining based clonogenic assay; assay type: functional, cell-based; details: time 9.0 day
OVCAR-8 = experiment: Cytotoxicity against human OVCAR-8 cells measured after 3 days; assay type: functional, cell-based; details: OVCAR-8, 72 h
SU-DHL10 = experiment: Cytotoxicity against human SU-DHL-10 cells measured after 3 days; assay type: functional, cell-based; details: SU-DHL10, 72 h
KU812 cell line = experiment: Cytotoxicity against human KU812 cell line measured after 3 days; assay type: functional, cell-based; details: KU812, 72 h
[1] = Cytotoxicity against human OVTOKO cells measured after 3 days; assay type: functional, cell-based; details: 72 h
[2] = Cytotoxicity against human NCE-G 120 cells measured after 3 days; assay type: functional, cell-based; details: NCE-G 120, 72 h
K562 = experiment: Cytotoxicity against human K562 cells measured after 3 days; assay type: functional, cell-based; details: K562, 72 h
Huh-7 = experiment: Cytotoxicity against human Huh-7 cells measured after 3 days; assay type: functional, cell-based; details: Huh-7, 72 h
SW1573 = experiment: Cytotoxicity against human SW1573 cells measured after 3 days; assay type: functional, cell-based; details: SW1573, 72 h
PC-9 = experiment: Cytotoxicity against human PC-9 cells assessed as growth inhibition at 2 uM supplemented with fresh medium containing compound every 3 days for 9 days by Beckman Coulter counting method; assay type: functional, cell-based; details: time 9.0 day
NCI-H2030 = experiment: Cytotoxicity against human NCI-H2030 cells measured after 8 days; assay type: functional, cell-based; details: NCI-H2030, 192 h
MDA-MB-453 = experiment: Cytotoxicity against human MDA-MB-453 cells measured after 3 days; assay type: functional, cell-based; details: MDA-MB-453, 72 h
IMR-32 = experiment: Cytotoxicity against human IMR-32 cells measured after 3 days; assay type: functional, cell-based; details: IMR-32, 72 h
SNU-182 = experiment: Cytotoxicity against human SNU-182 cells measured after 3 days; assay type: functional, cell-based; details: SNU-182, 72 h
[3] = Cytotoxicity against human EFM-192C cells measured after 3 days; assay type: functional, cell-based; details: 72 h
MHH-PREB-1 = experiment: Cytotoxicity against human MHH-PREB-1 cells measured after 3 days; assay type: functional, cell-based; details: MHH-PREB-1, 72 h
786-0 = experiment: Cytotoxicity against human 786-0 cells measured after 3 days; assay type: functional, cell-based; details: 786-0, 72 h
[4] = Cytotoxicity against human NCE-G 121 cells measured after 3 days; assay type: functional, cell-based; details: NCE-G 121, 72 h
[5] = Cytotoxicity against human KHM-1B cells measured after 3 days; assay type: functional, cell-based; details: 72 h
[6] = Cytotoxicity against human KMS-26 cells measured after 3 days; assay type: functional, cell-based; details: KMS-26, 72 h
[7] = Cytotoxicity against human Hs 839.T cells measured after 3 days; assay type: functional, cell-based; details: 72 h
[8] = Cytotoxicity against human OVISE cells measured after 3 days; assay type: functional, cell-based; details: 72 h
EB2 = experiment: Cytotoxicity against human EB2 cells measured after 3 days; assay type: functional, cell-based; details: EB2, 72 h
NCI-H647 = experiment: Cytotoxicity against human NCI-H647 cells measured after 3 days; assay type: functional, cell-based; details: NCI-H647, 72 h
SNU-398 = experiment: Cytotoxicity against human SNU-398 cells measured after 3 days; assay type: functional, cell-based; details: SNU-398, 72 h
CAL-148 = experiment: Cytotoxicity against human CAL-148 cells measured after 3 days; assay type: functional, cell-based; details: CAL-148, 72 h
[9] = Cytotoxicity against human Ci-1 cells measured after 3 days; assay type: functional, cell-based; details: Ci-1, 72 h
[10] = Cytotoxicity against human NCE-G 130 cells measured after 3 days; assay type: functional, cell-based; details: NCE-G 130, 72 h
SNU-387 = experiment: Cytotoxicity against human SNU-387 cells measured after 3 days; assay type: functional, cell-based; details: SNU-387, 72 h
EOL1 = experiment: Cytotoxicity against human EOL1 cells measured after 3 days; assay type: functional, cell-based; details: EOL1, 72 h
[11] = Lipophilicity, log D of the compound at pH 7.4; assay type: physicochemical; details: buffer
HCC1187 = experiment: Cytotoxicity against human HCC1187 cells measured after 3 days; assay type: functional, cell-based; details: HCC1187, 72 h
ES-2 = experiment: Cytotoxicity against human ES2 cells measured after 3 days; assay type: functional, cell-based; details: ES-2, 72 h
[12] = Cytotoxicity against human HCC1428 cells measured after 8 days; assay type: functional, cell-based; details: HCC1428, 192 h
ACHN = experiment: Cytotoxicity against human ACHN cells measured after 3 days; assay type: functional, cell-based; details: 72 h
[13] = Cytotoxicity against human MOLP8 cells measured after 3 days; assay type: functional, cell-based; details: MOLP-8, 72 h
[14] = Cytotoxicity against human COV318 cells measured after 3 days; assay type: functional, cell-based; details: COV318, 72 h
HCC1954 = experiment: Antiproliferative activity against human HCC1954 cells assessed as reduction in colony formation at 1 uM supplemented with fresh medium containing compound every 3 days by MTT staining based assay; assay type: functional, cell-based; details: time 9.0 day
HEL = experiment: Cytotoxicity against human HEL cells measured after 3 days; assay type: functional, cell-based; details: 72 h
[15] = Cytotoxicity against human COV504 cells measured after 3 days; assay type: functional, cell-based; details: COV504, 72 h
[16] = Cytotoxicity against human RKOE6 cells measured after 3 days; assay type: functional, cell-based; details: RKOE6, 72 h
CA46 = experiment: Cytotoxicity against human CA46 cells measured after 3 days; assay type: functional, cell-based; details: CA46, 72 h
[17] = Cytotoxicity against human OV56 cells measured after 3 days; assay type: functional, cell-based; details: OV56, 72 h
Ramos = experiment: Cytotoxicity against human Ramos cells measured after 3 days; assay type: functional, cell-based; details: 72 h
[18] = Cytotoxicity against human NCE-G 122 cells measured after 3 days; assay type: functional, cell-based; details: NCE-G 122, 72 h
[19] = Cytotoxicity against human OVCA429 cells measured after 3 days; assay type: functional, cell-based; details: OVCA429, 72 h
[20] = Cytotoxicity against human HCC630 cells measured after 3 days; assay type: functional, cell-based; details: HCC630, 72 h
G-402 = experiment: Cytotoxicity against human G-402 cells measured after 3 days; assay type: functional, cell-based; details: G-402, 72 h
NOMO-1 = experiment: Cytotoxicity against human NOMO-1 cells measured after 3 days; assay type: functional, cell-based; details: NOMO-1, 72 h
[21] = Cytotoxicity against human NCI-H2073 cells measured after 8 days; assay type: functional, cell-based; details: NCI-H2073, 192 h
[22] = Cytotoxicity against human JHH-4 cells measured after 3 days; assay type: functional, cell-based; details: JHH-4, 72 h
LP-1 = experiment: Cytotoxicity against human LP-1 cells measured after 3 days; assay type: functional, cell-based; details: LP-1, 72 h
[23] = Cytotoxicity against human HCC193 cells after 8 days; assay type: functional, cell-based; details: HCC193, 192 h
AMO1 = experiment: Cytotoxicity against human AMO1 cells measured after 3 days; assay type: functional, cell-based; details: AMO1, 72 h
HuCCT-1 = experiment: Cytotoxicity against human HuCCT-1 cells measured after 3 days; assay type: functional, cell-based; details: HuCCT-1, 72 h
[24] = Cytotoxicity against human SUM52PE cells measured after 3 days; assay type: functional, cell-based; details: 72 h
DOV13 = experiment: Cytotoxicity against human DOV13 cells measured after 3 days; assay type: functional, cell-based; details: DOV13, 72 h
KMS-12-PE = experiment: Cytotoxicity against human KMS-12-PE cells measured after 3 days; assay type: functional, cell-based; details: 72 h

C/C=C/Cn1cc(-c2ccc(C(C)(C)O)cc2OC)c2cc[nH]c2c1=O
Activity (MIA PaCa-2): inactive
Activity (A549): inactive

C/C=C/Cn1cc(-c2cc(OC)c(C(=O)N3CCOCC3)cc2OC)c2cc(C)[nH]c2c1=O
IC50 (OVCAR-8): 5 µM
IC50 (SU-DHL10): 5 µM
IC50 (KU812 cell line): 5 µM
IC50 [1]: 5 µM
IC50 [2]: 5 µM
IC50 (K562): 5 µM
IC50 (Huh-7): 5 µM
IC50 (SW1573): 5 µM
Activity (PC-9): inactive
IC50 (NCI-H2030): 2 µM
IC50 (MDA-MB-453): 5 µM
IC50 (IMR-32): 5 µM
IC50 (SNU-182): 5 µM
IC50 [3]: 5 µM
IC50 (MHH-PREB-1): 5 µM
IC50 (786-0): 5 µM
IC50 [4]: 5 µM
IC50 [5]: 5 µM
IC50 [6]: 5 µM
IC50 [7]: 5 µM
IC50 [8]: 5 µM
IC50 (EB2): 5 µM
IC50 (NCI-H647): 5 µM
IC50 (SNU-398): 5 µM
IC50 (CAL-148): 5 µM
IC50 [9]: 5 µM
IC50 [10]: 5 µM
IC50 (SNU-387): 5 µM
IC50 (EOL1): 5 µM
logD [11]: 2.4
IC50 (HCC1187): 5 µM
IC50 (ES-2): 5 µM
IC50 [12]: 2 µM
IC50 (ACHN): 5 µM
IC50 [13]: 5 µM
IC50 [14]: 5 µM
Activity (HCC1954): inactive
IC50 (HEL): 5 µM
IC50 [15]: 5 µM
IC50 [16]: 5 µM
IC50 (CA46): 5 µM
IC50 [17]: 5 µM
IC50 (Ramos): 5 µM
IC50 [18]: 5 µM
IC50 [19]: 5 µM
IC50 [20]: 5 µM
IC50 (G-402): 5 µM
IC50 (NOMO-1): 5 µM
IC50 [21]: 2 µM
IC50 [22]: 5 µM
IC50 (LP-1): 5 µM
IC50 [23]: 2 µM
IC50 (AMO1): 5 µM
IC50 (HuCCT-1): 5 µM
IC50 [24]: 5 µM
IC50 (DOV13): 5 µM
IC50 (KMS-12-PE): 5 µM
